Patent US20260272907A1, “Therapeutic Tyrosine Kinase Inhibitors for Multiple Sclerosis” (Principia Biopharma Inc., priority 2022, published 2026)

Experiments:
CD19+ B-cell = assay: Phase 1: absolute CD19+ B-cell counts
[1] = tested on: patients with relapsing multiple sclerosis; assay: Long-term safety extension: paramagnetic rim lesions (PRL) count (MRI); type: in vivo, human
Experimental: (§1) In the current open-label extension Part B, all patients receive 60 mg/day. MRI outcomes include numbers of new Gd-enhancing and new/enlarging T2 lesions, T2 lesion volume change from baseline, slowly evolving lesions (SEL), and paramagnetic rim lesions (PRL).

[2] = tested on: patients with relapsing multiple sclerosis; assay: Phase 2b trial: incidence of MS relapse during placebo run-out after tolebrutinib; type: in vivo, human
From the text: Unscheduled assessment visits for a suspected multiple sclerosis relapse: Participants are instructed to immediately report new neurological symptoms and recurring or worsening of previous symptoms to the Investigator. Any reported symptoms are to be collected. If a participant reports symptoms that may be consistent with relapse, an unscheduled assessment visit with the Investigator is scheduled as soon as possible (whenever possible within 7 days of onset of the symptoms). The Investigator assesses whether the reported episode is consistent with the definition of MS relapse (see Example 1.6B). If it is consistent with the definition of MS relapse or if there is any doubt and relapse cannot be ruled out, an EDSS assessment should be performed. Unscheduled visit activities are detailed in SoA (Table 1), they need to be adapted, if other pathology than MS is cause for it, and additional examinations or laboratory tests are needed for safety follow up and optimal treatment decisions.
Multiple sclerosis relapse: For the purposes of this study, MS relapse is defined as acute, new neurological symptoms or worsening of previous neurological symptoms with an objective change on neurological examination. Symptoms must: • Be attributable to MS • Last for >24 hours, and • Be present at normal body temperature (i.e., no infection, excessive exercise, or excessively high ambient temperature)
METHODS: As described in Examples 1 and 2, the 16-week, double-blind, crossover trial randomized 130 patients with RMS (1:1:1:1) to tolebrutinib 5, 15, 30, or 60 mg/day. […]
OUTCOMES: The outcomes evaluated in this example include measuring the incidence of relapse during 4-week placebo run-in and run-out, the number of new Gd-enhancing T1 lesions detected with magnetic resonance imaging (MRI) at Weeks 4, 8 and 16, the number of new or enlarging T2 lesions measured at Weeks 4, 8 and 16, and the plasma CD19+B-cell count measured in the placebo run-out cohort at baseline, 1 hour after the first dose, then at Week 12 and Week 16 (FIG. 3).

[3] = tested on: patients with relapsing multiple sclerosis; assay: Long-term safety extension: T2 lesion volume change from baseline (MRI); type: in vivo, human; conditions: for Volume of new or enlarging T2 lesions, Mean (SD): in cm³
Experimental: as §1
(§2) The Week 0 value is from the last MRI obtained in the dose-finding study if performed within 6 weeks prior to Day 1 of the long-term safety study For some patients the Week 0 value began after a gap period ranging from 0-21 weeks. For patients where the gap period was 0 weeks, the Week 0 value began immediately after the completion of Week 16 of the dose-finding study. For patients where the gap period was greater than 6 weeks a new MRI was obtained prior to Day 1 of the long-term safety study.
(§3) If from Week 16 of the dose-finding study (Cohort 2), it is also included in Week 12. If from Week 16 of the dose-finding study (Cohort 1), it is after 4 weeks placebo run out.

CYP3A = assay: Preclinical drug metabolism studies: CYP3A; type: in vitro ADME
From the text: See Table 12 for the list of drugs not to be used.

[4] = tested on: patients with relapsing multiple sclerosis; assay: Phase 2b dose-finding study: total number of Gd-enhancing T1-hyperintense lesions by brain MRI; conditions: for Count of Gd-enhancing T1-hyperintense lesions, observed mean (SD): 12 weeks of treatment
Experimental: New T1 Gd-enhancing hyperintense and new and enlarging T2 lesions are evaluated at each visit as per the SoA (Table 1), comparing lesion count to that from the previous MRI scan. Unless specified otherwise, the baseline brain MRI is used as the reference to assess all MRI-derived endpoints. The baseline MRI is the last MRI performed before the randomization visit. Standardized endpoint evaluation is assured by central review of brain MRI scans. Blinded central review is performed for all MRI-derived endpoints. Magnetic resonance imaging reviewers are blinded to treatment assignments and to other participant data.
As it is reasonable to assume a constant rate of lesion formation over 12 weeks under placebo for total number of Gd-enhancing T1-hyperintense lesions, the same approach as that utilized for the primary endpoint is used, by using the Week 4 data in Cohort 2 as the Week 12 placebo data while accounting for the within-participant correlation. Descriptive summary statistics over time is provided for each of the 4 BTK inhibitor doses.
For each secondary endpoint, a similar negative binomial model and the MCP-Mod procedure were used. As it is reasonable to assume a constant rate of lesion formation over 12 weeks under placebo treatment, the same approach as that utilized for the primary endpoint was used, i.e., using the Week 4 data in Cohort 2 as the Week 12 placebo data while accounting for within-participant correlation. Descriptive summary statistics over time were provided for each of the 4 BTK inhibitor dose groups.

[5] = tested on: patients with relapsing multiple sclerosis; assay: Long-term safety extension: slowly evolving lesions (SEL) volume (MRI); type: in vivo, human; conditions: W96
Experimental: as §1

[6] = tested on: patients with relapsing multiple sclerosis; assay: Long-term safety extension: number of new or enlarging T2 lesions (MRI); type: in vivo, human
Experimental: as §1, §2, §3

[7] = Cohort 1 (all doses), 4-week placebo run-out after 12 weeks of tolebrutinib
[8] = 5 mg daily, after 12 weeks of treatment
[9] = 15 mg daily, after 12 weeks of treatment
[10] = 30 mg daily, after 12 weeks of treatment
[11] = 60 mg daily, after 12 weeks of treatment

C=CC(=O)N1CCC[C@@H](n2c(=O)n(-c3ccc(Oc4ccccc4)cc3)c3c(N)nccc32)C1 [the BTK inhibitor, (R)-1-(1-acryloylpiperidin-3-yl)-4-amino-3-(4-phenoxyphenyl)-1H-imidazo[4,5-c]pyridin-2(3H)-one]
Dose at which the dose-response for the increase in circulating B-cells is maximal (CD19+ B-cell): approximately 30 mg once daily
Dose-dependent increase of absolute CD19+ B-cell counts relative to baseline (CD19+ B-cell; observed maximally at Day 4): up to 80%
Patients in whom PRL count remained unchanged ([1]; W96 vs baseline, all arms): 18 patients
Patients with 1 PRL at baseline but none at W96 ([1]; all arms): 2 patients
Patients with 1-3 additional PRL at W96 vs baseline ([1]; none in the 60/60 mg arm): 3 patients
Patients relapse-free during the placebo run-out [2, 7]: 98.4%
Relapses during the placebo run-out [2, 7]: 1
Rebound disease activity after discontinuation ([2]; patients with RMS, 4-week placebo run-out, preliminary findings): does not induce rebound disease activity
Volume of new or enlarging T2 lesions, Median ([3]; 5/60 mg, Week 0): 0.09 cm³
Volume of new or enlarging T2 lesions, Mean (SD) ([3]; 5/60 mg, Week 0): 1.28 (2.57)
Volume of new or enlarging T2 lesions, Median ([3]; 5/60 mg, Week 12): 0.2 cm³
Volume of new or enlarging T2 lesions, Mean (SD) ([3]; 5/60 mg, Week 12): 1.05 (1.70)
Volume of new or enlarging T2 lesions, Median ([3]; 15/60 mg, Week 0): 0.08 cm³
Volume of new or enlarging T2 lesions, Mean (SD) ([3]; 15/60 mg, Week 0): 0.72 (1.86)
Volume of new or enlarging T2 lesions, Median ([3]; 15/60 mg, Week 12): 0.2 cm³
Volume of new or enlarging T2 lesions, Mean (SD) ([3]; 15/60 mg, Week 12): 1.09 (1.61)
Volume of new or enlarging T2 lesions, Median ([3]; 30/60 mg, Week 0): 0 cm³
Volume of new or enlarging T2 lesions, Mean (SD) ([3]; 30/60 mg, Week 0): 0.48 (1.59)
Volume of new or enlarging T2 lesions, Median ([3]; 30/60 mg, Week 12): 0.04 cm³
Volume of new or enlarging T2 lesions, Mean (SD) ([3]; 30/60 mg, Week 12): 0.69 (1.30)
T2 lesion volume change, W96 vs baseline, mean±SD ([3]; 60/60 mg arm): 0.38±2.11 cm3
Volume of new or enlarging T2 lesions, Median ([3]; 60/60 mg, Week 0): 0 cm³
Volume of new or enlarging T2 lesions, Mean (SD) ([3]; 60/60 mg, Week 0): 0.18 (0.38)
Volume of new or enlarging T2 lesions, Median ([3]; 60/60 mg, Week 12): 0.06 cm³
Volume of new or enlarging T2 lesions, Mean (SD) ([3]; 60/60 mg, Week 12): 0.26 (0.48)
Volume of new or enlarging T2 lesions, Median ([3]; All (N = 125), Week 0): 0 cm³
Volume of new or enlarging T2 lesions, Mean (SD) ([3]; All (N = 125), Week 0): 0.67 (1.81)
Volume of new or enlarging T2 lesions, Median ([3]; All (N = 125), Week 12): 0.12 cm³
Volume of new or enlarging T2 lesions, Mean (SD) ([3]; All (N = 125), Week 12): 0.80 (1.39)
Substrate of CYP3A isoenzyme (CYP3A): substrate
Total Gd-enhancing T1-hyperintense lesion count, Mean [4, 8]: 1.77
Total Gd-enhancing T1-hyperintense lesion count, Median [4, 8]: 0.00
Count of Gd-enhancing T1-hyperintense lesions, observed mean (SD) ([4]; 5 mg once daily): 1.77 (4.10)
Patients with 2 total Gd-enhancing T1-hyperintense lesions [4, 9]: 0 n
Total Gd-enhancing T1-hyperintense lesion count, Mean [4, 9]: 0.87
Total Gd-enhancing T1-hyperintense lesion count, Median [4, 9]: 0.00
Count of Gd-enhancing T1-hyperintense lesions, observed mean (SD) ([4]; 15 mg once daily): 0.87 (1.59)
Total Gd-enhancing T1-hyperintense lesion count, Mean [4, 10]: 1.18
Total Gd-enhancing T1-hyperintense lesion count, Median [4, 10]: 0.00
Count of Gd-enhancing T1-hyperintense lesions, observed mean (SD) ([4]; 30 mg once daily): 1.18 (4.87)
Total Gd-enhancing T1-hyperintense lesion count, Mean [4, 11]: 0.29
Total Gd-enhancing T1-hyperintense lesion count, Median [4, 11]: 0.00
Count of Gd-enhancing T1-hyperintense lesions, observed mean (SD) ([4]; 60 mg once daily): 0.29 (0.86)
Participants with no Gd-enhancing T1-hyperintense lesions ([4]; 60 mg, end of 12 weeks of treatment, 27 of 31 with evaluable MRI): 87.1%
Relative reduction in total count of Gd-enhancing T1-hyperintense lesions relative to placebo ([4]; any of the doses tested (5, 15, 30, 60 mg), 12 weeks): No statistically significant relative reduction
SEL volume, median (IQR) ([5]; 5/60-mg arm): 247.5 (84-420) mm3
SEL volume, median (IQR) ([5]; 15/60-mg arm): 258 (66-906) mm3
SEL volume, median (IQR) ([5]; 30/60-mg arm): 570 (133.5-1011) mm3
SEL volume, median (IQR) ([5]; 60/60-mg arm): 244.5 (87-939) mm3
Number of new or enlarging T2 lesions, Mean (SD) ([6]; 5/60 mg, Week 0): 3.97 (8.47)
Number of new or enlarging T2 lesions, Median ([6]; 5/60 mg, Week 0): 0.00
Number of new or enlarging T2 lesions, Mean (SD) ([6]; 5/60 mg, Week 12): 1.68 (3.49)
Number of new or enlarging T2 lesions, Median ([6]; 5/60 mg, Week 12): 0.00
Number of new or enlarging T2 lesions, Mean (SD) ([6]; 15/60 mg, Week 0): 3.52 (6.51)
Number of new or enlarging T2 lesions, Median ([6]; 15/60 mg, Week 0): 1.00
Number of new or enlarging T2 lesions, Mean (SD) ([6]; 15/60 mg, Week 12): 1.32 (1.83)
Number of new or enlarging T2 lesions, Median ([6]; 15/60 mg, Week 12): 1.00
Number of new or enlarging T2 lesions, Mean (SD) ([6]; 30/60 mg, Week 0): 3.41 (7.32)
Number of new or enlarging T2 lesions, Median ([6]; 30/60 mg, Week 0): 0.00
Number of new or enlarging T2 lesions, Mean (SD) ([6]; 30/60 mg, Week 12): 1.34 (4.97)
Number of new or enlarging T2 lesions, Median ([6]; 30/60 mg, Week 12): 0.00
New/enlarging T2 lesion counts ([6]; 60/60 mg, LTS through W96): remained low
Number of new or enlarging T2 lesions, Mean (SD) ([6]; 60/60 mg, Week 0): 1.10 (1.87)
Number of new or enlarging T2 lesions, Median ([6]; 60/60 mg, Week 0): 0.00
Number of new or enlarging T2 lesions, Mean (SD) ([6]; 60/60 mg, Week 12): 0.29 (0.69)
Number of new or enlarging T2 lesions, Median ([6]; 60/60 mg, Week 12): 0.00
Number of new or enlarging T2 lesions, Mean (SD) ([6]; All (N = 125), Week 0): 3.00 (6.56)
Number of new or enlarging T2 lesions, Median ([6]; All (N = 125), Week 0): 0.00
Number of new or enlarging T2 lesions, Mean (SD) ([6]; All (N = 125), Week 12): 1.16 (3.21)
Number of new or enlarging T2 lesions, Median ([6]; All (N = 125), Week 12): 0.00
